For seven compounds, IC50 results are on record in US20250018014A1, “METHOD FOR TREATING AND/OR PREVENTING REGNASE-1-RELATED DISEASE” (OSAKA UNIVERSITY, priority 2018, published 2025).

Assay type in all cases: biochemical
In experiment [1] the target is T1, Reg1_301-599 (amino acids 301-599 of human Regnase-1) phosphorylation by IKKβ (Homo sapiens, UniProt Q5D1E8).
T1 construct: made in house; host or cells: Expi293 cells
T1 sequence (Q5D1E8 301-599): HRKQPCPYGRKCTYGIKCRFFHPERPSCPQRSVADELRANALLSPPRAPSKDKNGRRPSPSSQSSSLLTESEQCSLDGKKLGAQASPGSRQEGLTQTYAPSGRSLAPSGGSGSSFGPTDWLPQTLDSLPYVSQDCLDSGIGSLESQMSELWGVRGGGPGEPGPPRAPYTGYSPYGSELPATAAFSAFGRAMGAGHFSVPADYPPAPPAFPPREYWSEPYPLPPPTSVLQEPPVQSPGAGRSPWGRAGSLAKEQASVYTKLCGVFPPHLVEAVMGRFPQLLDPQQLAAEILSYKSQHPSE
Nature of the experiment: Regnase-1 phosphorylation inhibition by compounds (AlphaScreen), IKKβ, C-terminal Regnase-1. The settings on record: Table 14, read-out: Phosphorylation inhibition Reg1_301-599, 50% inhibition concentration (IKKβ). The source says:
(§1) The full-length sequence of human Regnase-1 (UniProt ID: Q5D1E8) was used to prepare a construct having a FLAG tag on the N-terminal side and a recognition sequence for biotin ligase BirA on the C-terminal side (FL_Reg1) as a target protein. The above-mentioned Regnase-1 was expressed in mammalian Expi293 cells, purified with FLAG M2 agarose, and isolated by gel filtration chromatography. When biotinylation was required, methods from nonpatent documents (BMC biotechnology, 2008,8,41; and Protein Science, 1999,8,921-929) were used.
(§2) Among the full-length human Regnase-1 sequence, the 1st to 546th amino acid sequence was prepared and made into a construct having a FLAG tag on the N-terminal side and a biotin ligase BirA recognition sequence on the C-terminal side (herein, a Regnase-1 lacking the C-terminal domain of Regnase-1 (amino acids 547 to 599 in the case of SEQ ID NO: 2) is referred to as “ΔCTD_Reg1”. “ΔCTD_Reg1” is different from “Regnase-1ΔCTD”, which is a C-terminal domain deletion variant resulting from a frameshift mutation caused by a 1 bp deletion at codon 517, as prepared in Example 13). In addition, the sequence from amino acids 301 to 599 of the full-length human Regnase-1 sequence was designated as C-terminal Regnase-1, and a construct having a FLAG tag on the N-terminal side and a recognition sequence for biotin ligase BirA on the C-terminal side was prepared (Reg1_301-599). The above-mentioned Regnase-1 was expressed in mammalian Expi293 cells, purified with FLAG M2 agarose, and isolated by gel filtration chromatography. When biotinylation was required, methods of nonpatent documents (BMC biotechnology, 2008,8,41; and Protein Science, 1999,8,921-929) were used.
(§3) Using Kinase assay buffer III (manufactured by SignalChem) supplemented with 2 mM DTT, 100 μM sodium vanadate, and 2 mM manganese chloride, kinase (IKKβ (manufactured by SignalChem) or TBK1 (manufactured by SignalChem)) and Regnase-1 were reacted in the presence of 10 μM ATP at room temperature for 2 hours to perform a phosphorylation reaction.
(§4) Phosphorylated Regnase-1 was detected by the AlphaScreen system. After each of the above-mentioned phosphorylated Regnase-1 antibodies was added and reacted at room temperature for one hour, anti-FLAG AlphaLISA Acceptor Beads (manufactured by PerkinElmer) and Protein A AlphaScreen Donor Beads (manufactured by PerkinElmer) were added, and EnVision (manufactured by PerkinElmer) was used to measure the excited luminescence. As a result, phosphorylated Regnase-1 produced by the phosphorylation reaction by kinase was specifically detected, and signals were confirmed to be enhanced in a manner dependent on Regnase-1 and kinase concentrations (FIG. 24).
(§5) After mixing 2 nM of the above-mentioned Regnase-1 and the compound, phosphorylated Regnase-1 produced by the phosphorylation reaction was detected by the AlphaScreen system. As the results, the inhibition rate was calculated from the signals obtained when adding the compound at each concentration, by defining the signal obtained with Regnase-1 alone to be 100% inhibition rate, and the signal obtained when the same amount of solvent (DMSO) is added in place of the compound as 0% inhibition rate. The 50% inhibition concentration (μM) was calculated from the obtained dose response curve (Table 11).

In experiment [2] the target is T2, Reg1_301-599 (amino acids 301-599 of human Regnase-1) phosphorylation by TBK1 (Homo sapiens, UniProt Q5D1E8).
T2 construct: made in house; host or cells: Expi293 cells
T2 sequence (Q5D1E8 301-599): T1 sequence (Q5D1E8 301-599)
Description: Regnase-1 phosphorylation inhibition by compounds (AlphaScreen), TBK1, C-terminal Regnase-1. To be noted: Table 13, read-out: Phosphorylation inhibition Reg1_301-599, 50% inhibition concentration (TBK1). As to the method:
as §2, §3, §4, §5

The target in experiment [3] is T3, ΔCTD_Reg1 (amino acids 1 to 546 of human Regnase-1) phosphorylation by TBK1 (Homo sapiens, UniProt Q5D1E8).
T3 construct: made in house; host or cells: Expi293 cells
T3 sequence (Q5D1E8 1-546): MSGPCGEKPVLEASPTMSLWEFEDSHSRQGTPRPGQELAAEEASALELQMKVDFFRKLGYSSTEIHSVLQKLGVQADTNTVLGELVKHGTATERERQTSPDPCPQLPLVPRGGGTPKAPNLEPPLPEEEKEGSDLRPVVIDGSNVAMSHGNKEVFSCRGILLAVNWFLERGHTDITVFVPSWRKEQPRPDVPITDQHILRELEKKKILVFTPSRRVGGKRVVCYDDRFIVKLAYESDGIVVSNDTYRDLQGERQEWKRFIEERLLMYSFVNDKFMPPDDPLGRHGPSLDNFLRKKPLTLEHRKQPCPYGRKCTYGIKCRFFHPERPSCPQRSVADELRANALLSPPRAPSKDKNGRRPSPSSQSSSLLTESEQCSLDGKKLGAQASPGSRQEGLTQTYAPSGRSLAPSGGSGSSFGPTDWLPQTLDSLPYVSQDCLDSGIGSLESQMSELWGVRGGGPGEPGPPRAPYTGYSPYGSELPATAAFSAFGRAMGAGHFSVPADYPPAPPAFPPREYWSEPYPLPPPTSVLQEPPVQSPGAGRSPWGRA
Description: Regnase-1 phosphorylation inhibition by compounds (AlphaScreen), TBK1, CTD-deficient Regnase-1.
Source text: as §1, §2, §3, §4, §5
For orientation: In Alpha technology, singlet oxygen from a donor bead excites a nearby acceptor bead.

[4] abbreviates: Table 13, phosphorylation by TBK1, read-out: Phosphorylation inhibition ΔCTD_Reg1, 50% inhibition concentration (TBK1).
Where [5] appears, read: Table 11, 2 nM Regnase-1, AlphaScreen, read-out: 50% inhibition concentration, Regnase-1 phosphorylation, ΔCTD_Reg1, TBK1.

Where two headings read alike, the source gives them in different places. Residues, ends and D or L forms follow the SMILES beside them. Where only a bound is given, the exact number is not on record here.

On to `CC[C@H](C)[C@@H]1NC(=O)[C@H](CO)NC(=O)[C@H](CCCNC(=N)N)NC(=O)[C@H](Cc2ccc(O)cc2)NC(=O)[C@H](Cc2ccc(O)cc2)NC(=O)[C@H](Cc2c[nH]c3ccccc23)NC(=O)[C@H](CO)NC(=O)[C@H](CCC(N)=O)NC(=O)[C@H](Cc2ccc(O)cc2)NC(=O)[C@H](CC(N)=O)NC(=O)[C@H](C)N(C)C(=O)C[C@@H](C(=O)N2CCCC2)NC(=O)[C@H](Cc2c[nH]c3ccccc23)NC1=O` [PP10] (HELM PEPTIDE1{[meA].N.Y.Q.S.W.Y.Y.R.S.I.W.D.[C1CCN([*:1])C1]}$PEPTIDE1,PEPTIDE1,1:R1-13:R3$$$V2.0), for which the IC50 in experiment [1] stood at 1.8 µM; in experiment [2] it was 0.4 µM; in experiment [3] (setting [4]), 0.2 µM.
As to `CC[C@H](C)[C@@H]1NC(=O)[C@H](Cc2c[nH]c3ccccc23)NC(=O)[C@H](CCC(N)=O)NC(=O)[C@H](Cc2ccc(O)cc2)NC(=O)[C@H](C(C)C)NC(=O)[C@H](C)NC(=O)[C@H](Cc2ccc(O)cc2)NC(=O)[C@H](CCCNC(=N)N)NC(=O)[C@H](C)N(C)C(=O)C[C@@H](C(=O)N2CCCC2)NC(=O)[C@@H]2CCCN2C(=O)[C@H](Cc2ccc(O)cc2)NC1=O` [PP12] (HELM PEPTIDE1{[meA].R.Y.A.V.Y.Q.W.I.Y.P.D.[C1CCN([*:1])C1]}$PEPTIDE1,PEPTIDE1,1:R1-12:R3$$$V2.0), the figures for the IC50 in experiment [1] and in experiment [2] were 20.7 µM and 19.6 µM, respectively.
For `CC(C)[C@@H]1NC(=O)[C@H](CCCCN)NC(=O)[C@H](Cc2ccc(O)cc2)NC(=O)[C@H](Cc2c[nH]c3ccccc23)NC(=O)[C@H](CO)NC(=O)[C@H]([C@@H](C)O)NC(=O)[C@H](C)N(C)C(=O)C[C@@H](C(=O)N2CCCC2)NC(=O)[C@H](CCC(N)=O)NC(=O)CNC(=O)[C@H](Cc2c[nH]c3ccccc23)NC(=O)[C@H](CC(N)=O)NC1=O` [PP1] (HELM PEPTIDE1{[meA].T.S.W.Y.K.V.N.W.G.Q.D.[C1CCN([*:1])C1]}$PEPTIDE1,PEPTIDE1,1:R1-12:R3$$$V2.0), the IC50 in experiment [1], in experiment [2], in experiment [3] (setting [5]) and in experiment [3] (setting [4]) was greater than 62.1 µM each time.
In the case of `CC[C@H](C)[C@@H]1NC(=O)[C@H](Cc2c[nH]c3ccccc23)NC(=O)[C@@H](Cc2ccccc2)NC(=O)[C@H](CCCCN)NC(=O)[C@H](C)N(C)C(=O)C[C@@H](C(=O)N2CCCC2)NC(=O)[C@H](CCC(=O)O)NC(=O)[C@H](Cc2ccccc2)NC(=O)[C@H](CO)NC(=O)[C@H](Cc2c[nH]cn2)NC(=O)[C@H](Cc2c[nH]cn2)NC1=O` [PP20] (HELM PEPTIDE1{[meA].K.[dF].W.I.H.H.S.F.E.D.[C1CCN([*:1])C1]}$PEPTIDE1,PEPTIDE1,1:R1-11:R3$$$V2.0), the IC50 in experiment [1], in experiment [2] and in experiment [3] (setting [4]) was greater than 62.1 µM in each case.
On to `CC[C@H](C)[C@@H]1NC(=O)[C@H](CCCNC(=N)N)NC(=O)[C@H](Cc2ccc(O)cc2)NC(=O)[C@H](Cc2c[nH]c3ccccc23)NC(=O)[C@H](C)NC(=O)[C@H](CO)NC(=O)[C@H](C)NC(=O)[C@H](Cc2c[nH]cn2)NC(=O)[C@H](CCCCN)NC(=O)[C@@H](C)N(C)C(=O)C[C@@H](C(=O)N2CCCC2)NC(=O)[C@H](Cc2c[nH]c3ccccc23)NC1=O` [PP3] (HELM PEPTIDE1{[C[C@H](C(=O)[*:2])N(C)[*:1]].K.H.A.S.A.W.Y.R.I.W.D.[C1CCN([*:1])C1]}$PEPTIDE1,PEPTIDE1,1:R1-12:R3$$$V2.0), for which the IC50 was found to be 6.8 µM in experiment [1], 7.1 µM in experiment [2] and 5.7 µM in experiment [3] (setting [5]).
As to `CC[C@H](C)[C@@H]1NC(=O)[C@H](Cc2c[nH]c3ccccc23)NC(=O)[C@H](CCCNC(=N)N)NC(=O)[C@H](Cc2ccccc2)NC(=O)[C@H](CCC(N)=O)NC(=O)[C@H](C)NC(=O)[C@H](Cc2ccccc2)NC(=O)[C@H](CCCCN)NC(=O)[C@H](C)N(C)C(=O)C[C@@H](C(=O)N2CCCC2)NC(=O)[C@@H]2CCCN2C(=O)[C@H](Cc2ccc(O)cc2)NC1=O` [PP11] (HELM PEPTIDE1{[meA].K.F.A.Q.F.R.W.I.Y.P.D.[C1CCN([*:1])C1]}$PEPTIDE1,PEPTIDE1,1:R1-12:R3$$$V2.0), the IC50 in experiment [1] and in experiment [2] was greater than 62.1 µM throughout.
Take `CC[C@H](C)[C@@H]1NC(=O)[C@H](CC(=O)O)NC(=O)[C@H](C)N(C)C(=O)C[C@@H](C(=O)N2CCCC2)NC(=O)[C@H](Cc2ccc(O)cc2)NC(=O)[C@H](CC(=O)O)NC(=O)[C@H](Cc2c[nH]c3ccccc23)NC(=O)[C@H](Cc2ccc(O)cc2)NC(=O)[C@H](CC(=O)O)NC(=O)[C@H](Cc2ccccc2)NC(=O)[C@H](Cc2c[nH]c3ccccc23)NC1=O` [PP18] (HELM PEPTIDE1{[meA].D.I.W.F.D.Y.W.D.Y.D.[C1CCN([*:1])C1]}$PEPTIDE1,PEPTIDE1,1:R1-11:R3$$$V2.0): the IC50 in experiment [1] was found to be 0.5 µM; in experiment [3] (setting [4]) it was 1.8 µM.
